As usually defined, the EC50 is the concentration that produces a half-maximal response.

The structures appear in SMILES notation.

The assay deals with HCV 1b genotype. Briefly: HCV Replicon assay (HCV 16-377-neo replicon cells). Format: cell-based. The settings on record: Hepatitis C virus; HCV 1b genotype replicon cells; read-out: EC50 ranges against HCV 1b. Summed up: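 Inhibition measured in HCV 16-377-neo replicon cells, alongside replicon cells carrying the NS5A Y2065H resistance mutation.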

For `COC(=O)N[C@H](C(=O)N1[C@@H]2C[C@@H]2C[C@H]1c1nc(-c2ccc(-c3ccc(-c4c[nH]c([C@@H]5C[C@H]6C[C@H]6N5C(=O)[C@@H](NC(=O)OC)C5CC5)n4)cc3)cc2)c[nH]1)C1CC1` [Example M135, dimethyl (4,4'-biphenyldiylbis(1H-imidazole-4,2-diyl(1R,3S,5R)-2-azabicyclo[3.1.0]hexane-3,2-diyl((1S)-1-cyclopropyl-2-oxo-2,1-ethanediyl)))biscarbamate], the EC50 was in the range of 0.001 to 0.999 nM.
In the case of `CCCc1nc([C@@H]2CCCN2C(=O)[C@H](C)NC(=O)OC)[nH]c1-c1ccc(-c2ccc(-c3c[nH]c([C@@H]4CCCN4C(=O)[C@H](C)NC(=O)OC)n3)cc2)cc1` [Example J14c, methyl ((1S)-2-((2S)-2-(4-(4'-(2-((2S)-1-(N-(methoxycarbonyl)-L-alanyl)-2-pyrrolidinyl)-4-propyl-1H-imidazol-5-yl)-4-biphenylyl)-1H-imidazol-2-yl)-1-pyrrolidinyl)-1-methyl-2-oxoethyl)carbamate], the EC50 is 0.001 to 0.999 nM.

Source of the values: patent EP2242752B1, “[…] IMIDAZOLES AS HEPATITIS C VIRUS INHIBITORS” (Bristol-Myers Squibb Company, priority 2008, dated 2009).
